“And” between values parts separate entries of the source, which are not always exact repeats. Equal entries are not always repeated. Inconclusive results and toxic doses are left out.
Test system: L1210 leukemia ip in BDF1 mice, survival T/C
Test: NCI In Vivo Anticancer Drug Screen. Data for tumor model L1210 Leukemia (intraperitoneal) in B6D2F1 (BDF1) mice
Conditions: endpoint: mean survival time, higher = longer survival
Method in brief: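 Read-out is survival time, reported as the treated-group measurement over the vehicle-control measurement.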

[1] = dose: 50.0 mg/kg/injection, schedule: Q01DX009 (ip), vehicle: saline
[2] = dose: 200.0 mg/kg/injection, schedule: Q01DX001 (ip), vehicle: carboxymethylcellulose (CMC)
[3] = dose: 100.0 mg/kg/injection, schedule: Q01DX009 (ip), vehicle: Klucel (hydroxypropylcellulose) (HPC)
[4] = dose: 200.0 mg/kg/injection, schedule: Q01DX009 (ip), vehicle: Klucel (hydroxypropylcellulose) (HPC)
[5] = dose: 400.0 mg/kg/injection, schedule: Q01DX009 (ip), vehicle: Klucel (hydroxypropylcellulose) (HPC)

CC1(C)CCN1Cc1ccccc1
T/C (dose: 12.0 mg/kg/injection, schedule: Q01DX001 (ip), vehicle: saline): 98 % of control
T/C (dose: 12.0 mg/kg/injection, schedule: Q04DX003 (ip), vehicle: saline): 95 % of control
T/C (dose: 12.5 mg/kg/injection, schedule: Q01DX009 (ip), vehicle: saline): 95 % of control
T/C (dose: 25.0 mg/kg/injection, schedule: Q01DX001 (ip), vehicle: saline): 100 % of control
T/C (dose: 25.0 mg/kg/injection, schedule: Q01DX009 (ip), vehicle: saline): 101 % of control
T/C (dose: 25.0 mg/kg/injection, schedule: Q04DX003 (ip), vehicle: saline): 101 % of control
T/C (dose: 50.0 mg/kg/injection, schedule: Q01DX001 (ip), vehicle: saline): 96 % of control
T/C [1]: 123 % of control
T/C (dose: 50.0 mg/kg/injection, schedule: Q04DX003 (ip), vehicle: saline): 96 % of control

CCCCCCc1cc(N=Nc2ccc(S(=O)(=O)Nc3nnc(C)s3)cc2)c(O)cc1O
T/C (dose: 100.0 mg/kg/injection, schedule: Q01DX001 (ip), vehicle: carboxymethylcellulose (CMC)): 98 % of control
T/C [2]: 95 % of control

NCCc1cc(O)c(O)c(O)c1
T/C [1]: 104 % of control
T/C (dose: 100.0 mg/kg/injection, schedule: Q01DX009 (ip), vehicle: saline): 113 % of control

COc1cc(/C=C/C(N)=O)cc(OC)c1OC
T/C (dose: 25.0 mg/kg/injection, schedule: Q01DX009 (ip), vehicle: Klucel (hydroxypropylcellulose) (HPC)): 104 % of control
T/C (dose: 50.0 mg/kg/injection, schedule: Q01DX009 (ip), vehicle: Klucel (hydroxypropylcellulose) (HPC)): 114 % of control
T/C [3]: 101 % of control
T/C [4]: 104 % of control
T/C [5]: 102 % of control

CCC1=CC(=O)C(C)=C(C)C1=O
T/C (dose: 25.0 mg/kg/injection, schedule: Q04DX003 (ip), vehicle: other): 100 % of control
T/C (dose: 50.0 mg/kg/injection, schedule: Q04DX003 (ip), vehicle: other): 102 % of control
T/C (dose: 100.0 mg/kg/injection, schedule: Q04DX003 (ip), vehicle: other): 97 % of control and 102 % of control

Cc1ccc(S(=O)(=O)/N=C(\N)CCl)cc1
T/C (dose: 12.5 mg/kg/injection, schedule: Q04DX002 (ip), vehicle: saline with Tween-80): 98 % of control
T/C (dose: 25.0 mg/kg/injection, schedule: Q04DX002 (ip), vehicle: saline with Tween-80): 120 % of control
T/C (dose: 50.0 mg/kg/injection, schedule: Q04DX002 (ip), vehicle: saline with Tween-80): 95 % of control

CCCCC(=O)N(CCC)CCC
T/C (dose: 100.0 mg/kg/injection, schedule: Q04DX002 (ip), vehicle: saline): 96 % of control
T/C (dose: 200.0 mg/kg/injection, schedule: Q04DX002 (ip), vehicle: saline): 104 % of control
T/C (dose: 400.0 mg/kg/injection, schedule: Q04DX002 (ip), vehicle: saline): 104 % of control

COC(=O)c1c2ccccc2nc2c1c(C)c(C)c1ccccc12
T/C (dose: 100.0 mg/kg/injection, schedule: Q04DX003 (ip), vehicle: Klucel (hydroxypropylcellulose) (HPC)): 96 % of control
T/C (dose: 200.0 mg/kg/injection, schedule: Q04DX003 (ip), vehicle: Klucel (hydroxypropylcellulose) (HPC)): 110 % of control
T/C (dose: 400.0 mg/kg/injection, schedule: Q04DX003 (ip), vehicle: Klucel (hydroxypropylcellulose) (HPC)): 101 % of control

O=NN(CCBr)C(=O)NCCBr
T/C (dose: 3.0 mg/kg/injection, schedule: Q01DX Z (ip), vehicle: carboxymethylcellulose (CMC)): 110 % of control
T/C (dose: 6.0 mg/kg/injection, schedule: Q01DX Z (ip), vehicle: carboxymethylcellulose (CMC)): 107 % of control
T/C (dose: 6.25 mg/kg/injection, schedule: Q01DX001 (ip), vehicle: carboxymethylcellulose (CMC)): 104 % of control
T/C (dose: 12.5 mg/kg/injection, schedule: Q01DX001 (ip), vehicle: carboxymethylcellulose (CMC)): 103 % of control
T/C (dose: 25.0 mg/kg/injection, schedule: Q01DX001 (ip), vehicle: carboxymethylcellulose (CMC)): 109 % of control
T/C (dose: 50.0 mg/kg/injection, schedule: Q01DX001 (ip), vehicle: carboxymethylcellulose (CMC)): 114 % of control
T/C (dose: 50.0 mg/kg/injection, schedule: Q01DX Z (ip), vehicle: carboxymethylcellulose (CMC)): 172 % of control
T/C (dose: 100.0 mg/kg/injection, schedule: Q01DX Z (ip), vehicle: carboxymethylcellulose (CMC)): 156 % of control
T/C [2]: 178 % of control
T/C (dose: 300.0 mg/kg/injection, schedule: Q01DX001 (ip), vehicle: carboxymethylcellulose (CMC)): 200 % of control

O=C1CC(N2CCOCC2)c2ccccc21 (centres undefined)
T/C (dose: 100.0 mg/kg/injection, schedule: Q01DX001 (ip), vehicle: Klucel (hydroxypropylcellulose) (HPC)): 98 % of control
T/C [3]: 102 % of control
T/C (dose: 200.0 mg/kg/injection, schedule: Q01DX001 (ip), vehicle: Klucel (hydroxypropylcellulose) (HPC)): 92 % of control
T/C [4]: 93 % of control
T/C (dose: 400.0 mg/kg/injection, schedule: Q01DX001 (ip), vehicle: Klucel (hydroxypropylcellulose) (HPC)): 92 % of control
T/C [5]: 91 % of control

COc1ccc(NC(=O)/C=C/C(=O)O)cc1
T/C (dose: 100.0 mg/kg/injection, schedule: Q04DX002 (ip), vehicle: Klucel (hydroxypropylcellulose) (HPC)): 103 % of control
T/C (dose: 200.0 mg/kg/injection, schedule: Q04DX002 (ip), vehicle: Klucel (hydroxypropylcellulose) (HPC)): 95 % of control
T/C (dose: 400.0 mg/kg/injection, schedule: Q04DX002 (ip), vehicle: Klucel (hydroxypropylcellulose) (HPC)): 120 % of control

From PubChem BioAssay AID248 (DTP/NCI, 2004)
